Patent EP1093379B1, “USE OF INHIBITORS OF PROTEIN KINASE C EPSILON TO TREAT PAIN” (The Regents of the University of California, priority 1998, dated 2007)
Read-outs that look alike come from different tables or passages of the source.

Key:
[1] = system: prolonged PGE2-induced hyperalgesia; assay: Chronic inflammatory pain model: prolonged hyperalgesia in carrageenan-sensitized rats (Randall-Selitto paw-withdrawal test); type: in vivo; details: for duration of hyperalgesia in untreated rats: rats that have not received carrageenan injections; for duration of hyperalgesia in carrageenan-sensitized rats: seen up to three weeks after the carrageenan injection
Text: In order to investigate the role, if any, of PKCε in chronic inflammatory pain, the following model system for chronic inflammatory pain was developed. Rats received intradermal hind paw injections of carrageenan, an inflammatory agent. […] This was considered an acute response to the carrageenan-induced inflammation. Although administration of Prostaglandin E2 ("PGE2"), 5-hydroxytryptamine ("5-HT," serotonin) or CGS-21680 (an adenosine A2-selective receptor agonist) normally causes untreated rats (that is, rats that have not received carrageenan injections) to experience hyperalgesia lasting up to 6 hours, the hyperalgesia experienced by carrageenan-sensitized rats following administration of any one of these substances lasted up to 24 hours.
The prolonged PGE2-induced hyperalgesia normally seen in carrageenan-sensitized rats was inhibited by administration of BIM or εV1-2.
To examine whether protein kinase C modulates the processes by which a brief inflammatory event causes prolonged hyperalgesia many days later, rats received carrageenan and 1µg BIM injections at the same time. Hyperalgesia was measured 72 hours later, when the rats were treated PGE2. […] Therefore, administration of an inhibitor of PKC either at approximately the same time as the inflammatory agent giving rise to chronic, prolonged hyperalgesia or at about the same time as the hyperalgesia-inducing stimulus can lessen such chronic hyperalgesia.

[2] = system: PGE2-induced hyperalgesia; details: cited from earlier work; for Percentage decrease in nociceptive threshold in response to PGE2: PGE2 100 ng alone or with DAMGO, SQ22536, Rp-cAMPs (1 µg), data from Khasar 1995 / Taiwo and Levine 1991
[3] = system: mechanical nociceptive threshold; assay: von Frey hair paw-withdrawal frequency in wild-type mice; type: in vivo; details: 100ng by intraplantar injection prior to VFH stimulation (4, 6.9 or 14.8 grams)
Experimental: Mechanical, thermal and chemical nociception were evaluated in wild-type and PKCε-mutant mice.

[4] = Rotorod analysis of motor deficits; type: in vivo, rat; details: vincristine 100 µg/kg intravenously daily
Experimental: (§1) Humans undergoing chemotherapy frequently experience hyperalgesia. Vincristine is a chemotherapeutic drug known to cause such hyperalgesia, and a rat model of vincristine-induced hyperalgesia was established as follows. Vincristine (100 µg/kg in saline; Sigma Chemical Catalog) was administered intravenously daily to each of 32 rats over a period of two weeks.

[5] = system: vincristine-induced hyperalgesia; assay: Vincristine-induced hyperalgesia model, mechanical stimuli (Ugo Basile analgesymeter); type: in vivo, rat; details: vincristine 100 µg/kg intravenously daily; after the second day
Experimental: as §1
To determine whether administration of an inhibitor of PKCε would lessen vincristine-induced hyperalgesia in the rat model described above, on the 13th day of vincristine treatment, rats received no treatment (n= 16) or intradermal injections of sterile water followed by intradermal injections of either 1µg εV1-2, a PKCε inhibitory peptide (n=8; labeled "PKCεI" on Figure 12A), or 1µg S-VεV1-2, a scrambled version of the εV1-2 peptide (n=8; labeled "PCKεI SCR" on Figure 12A), 20-30 minutes before administration of a mechanical stimulus.

[6] = system: epinephrine-induced hyperalgesia; assay: Epinephrine-induced mechanical hyperalgesia, paw-withdrawal threshold (Ugo Basile analgesymeter); type: in vivo, rat
[7] = system: small diameter DRG neurons
TTX-RINa = type: cell-based, rat; details: for effect on epinephrine-induced potentiation of TTX-RINa: 2µM propranolol, 5µM phentolamine, 100µM Rp-cAMPs, 100µM BIM
[8] = system: isoproterenol-induced hyperalgesia; assay: Isoproterenol-induced mechanical hyperalgesia, paw-withdrawal threshold; type: in vivo, rat; details: for effect on isoproterenol-induced hyperalgesia: intradermal, BIM 1 µg, WIPTIDE 100 ng, propranolol dose not given
Experimental: To examine the role of β-AR in epinephrine-induced hyperalgesia, propranolol, a β-AR antagonist, and isoproterenol, a selective β-AR agonist, were administered by intradermal injection.
(§2) The roles of PKC, protein kinase A ("PKA") and the µ-opioid receptor in mediating epinephrine-induced hyperalgesia were assessed by measuring the effects of: Rp-adenosine 3', 5'-cyclic monophosphate ("Rp-cAMPs") and WIPTIDE, both inhibitors of PKA; SQ22536, an inhibitor of adenylyl cyclase, an enzyme activated by PKA; bisindolymaleimide ("BIM"), a nonselective inhibitor of PKC isozymes; and [D-Ala^2,N-Me-Phe^4,Gly^5-ol]-enkephalin ("DAMGO"), p-opioid receptor agonist. The dose for each inhibitor was 1µg, except for WIPTIDE, which was administered in a 100ng dose. […] A large numeric value means more hyperalgesia.

[9] = system: epinephrine-induced hyperalgesia; assay: Epinephrine-induced mechanical hyperalgesia, paw-withdrawal threshold (Ugo Basile analgesymeter); type: in vivo, rat; details: for effect on epinephrine-induced hyperalgesia: intradermal, rat hindpaw, inhibitors 1 µg (WIPTIDE 100 ng) 15 minutes prior to epinephrine, DAMGO co-injected, antagonist doses not given; for Percentage decrease in nociceptive threshold in response to epinephrine: epinephrine 100 ng alone or with DAMGO, SQ22536, BIM, Rp-cAMPs (all 1 µg) or WIPTIDE (0.1 µg), large value = more hyperalgesia
Experimental: as §2

[10] = system: formalin-induced hyperalgesia; details: similar dose of phentolamine; earlier studies; cited from earlier work
basal paw threshold = details: similar dose of phentolamine, normal rat; earlier studies; cited from earlier work
[11] = system: PGE2-induced hyperalgesia; assay: PGE2-induced mechanical hyperalgesia, paw-withdrawal threshold; type: in vivo, rat
Experimental: The roles of PKC, protein kinase A ("PKA") and the µ-opioid receptor in mediating epinephrine-induced hyperalgesia were assessed by measuring the effects of: Rp-adenosine 3', 5'-cyclic monophosphate ("Rp-cAMPs") and WIPTIDE, both inhibitors of PKA; SQ22536, an inhibitor of adenylyl cyclase, an enzyme activated by PKA; bisindolymaleimide ("BIM"), a nonselective inhibitor of PKC isozymes; and [D-Ala^2,N-Me-Phe^4,Gly^5-ol]-enkephalin ("DAMGO"), p-opioid receptor agonist. The dose for each inhibitor was 1µg, except for WIPTIDE, which was administered in a 100ng dose. DAMGO was co-injected with epinephrine whereas the other inhibitors were applied 15 minutes prior to epinephrine injection. […] TABLE 1: Percentage decrease in nociceptive threshold in response to epinephrine, PGE2 or isoproterenol (each 100 ng) and effects of DAMGO, SQ22536, BIM, Rp-cAMPs (all 1 µg) or WIPTIDE (0.1 µg). A large numeric value means more hyperalgesia.
For mechanical nociceptive testing, the nociceptive flexion reflex was quantified using an Ugo Basile analgesymeter that applies a constantly increasing force measured in grams (Stoelting, Chicago, IL; K. O. Aley, J. D. Levine, J. Neurosci. 17, 8018-23 (1997)). The mean basal mechanical threshold for rats used in these experiments was 105.3+/-2.8 grams. The effects of hyperalgesia-inducing agents epinephrine (100ng) and PGE2 (100ng) on mechanical nociceptive thresholds were determined by measuring paw withdrawal frequencies at 15, 20, and 25 minutes after administration of the hyperalgesic agent and then calculating the mean of these three readings.

[12] = system: PGE2-induced hyperalgesia; details: PGE2 100 ng alone or with DAMGO, SQ22536, Rp-cAMPs (1 µg); data from Khasar 1995 / Taiwo and Levine 1991; cited from earlier work
[13] = after 1µg epinephrine injection
[14] = 1µM epinephrine with 100µM BIM v. epinephrine alone

NCCc1c[nH]c2ccc(O)cc12 [5-HT, 5-hydroxytryptamine]
duration of hyperalgesia in untreated rats [1]: up to 6 hours
duration of hyperalgesia in carrageenan-sensitized rats [1]: up to 24 hours

CCNC(=O)[C@H]1O[C@@H](n2cnc3c(N)nc(NCCc4ccc(CCC(=O)O)cc4)nc32)[C@H](O)[C@@H]1O [CGS-21680]
duration of hyperalgesia in untreated rats [1]: up to 6 hours
duration of hyperalgesia in carrageenan-sensitized rats [1]: up to 24 hours

CCCCC[C@H](O)/C=C/[C@H]1[C@H](O)CC(=O)[C@@H]1C/C=C\CCCC(=O)O [PGE2, prostaglandin E2]
duration of hyperalgesia in untreated rats [1]: up to 6 hours
duration of hyperalgesia in carrageenan-sensitized rats [1]: up to 24 hours
Percentage decrease in nociceptive threshold in response to PGE2 [2]: 33.6±1.9%
percent-withdrawal response to VFH stimulus [3]: dramatically increased

CC[C@]1(O)C[C@H]2CN(CCc3c([nH]c4ccccc34)[C@@](C(=O)OC)(c3cc4c(cc3OC)N(C=O)[C@H]3[C@@](O)(C(=O)OC)[C@H](OC(C)=O)[C@]5(CC)C=CCN6CC[C@]43[C@@H]65)C2)C1 [Vincristine]
motor deficits (Rotorod analysis) [4]: did not show any significant motor deficits
mechanical nociceptive thresholds of vincristine-treated rats [5]: acute dose-dependent decrease in mechanical nociceptive thresholds

CNC[C@H](O)c1ccc(O)c(O)c1 [epinephrine]
duration of epinephrine-induced hyperalgesia [6, 13]: approximately 2 hours
onset latency of epinephrine-induced hyperalgesia (significant) [6, 13]: 2 min
time to peak effect of hyperalgesia [6, 13]: ≤ 5 min
Percentage decrease in nociceptive threshold in response to epinephrine ([6]; epinephrine 100 ng alone or with DAMGO, SQ22536, BIM, Rp-cAMPs (all 1 µg) or WIPTIDE (0.1 µg), large value = more hyperalgesia): 29.6±2.1%
threshold reduction (mechanical nociceptive threshold) ([6]; epinephrine 100ng only, or sterile water and 1µg scrambled peptide prior to epinephrine, mean of 15, 20, 25 minutes, n=8): 25-30%
threshold at which the rat withdrew the paw ([6]; intradermal injections of 1ng to 1µg epinephrine, dorsal surface of hindpaw): dose-dependent decrease
mean resting potentials ([7]; 1µM epinephrine): unaffected
average number of action potentials generated in response to the current ramp-and-plateau ([7]; 1µM epinephrine, five minutes or more after start of perfusion, 1.7±0.2 before, 11 neurons): 5.3±0.9
neurons showing a decrease in spike latency of at least 50ms ([7]; 1µM epinephrine, 5 of 11 neurons): 45%
neurons showing an increase in spike number ([7]; 1µM epinephrine, nine of 11 neurons): 81%
mean latency from the start of current injection to the peak of the first spike ([7]; following 1µM epinephrine perfusion, 278±42ms without epinephrine, n=11): 189 ± 21 ms
percent-withdrawal response to VFH stimulus [3]: dramatically increased
mean peak current increase (TTX-RINa; [14]): 49%
number of neurons responsive to epinephrine (TTX-RINa; [14]): 8 out of 11
neurons with an increase in TTX-RINa (TTX-RINa; 1µM epinephrine, 14 out of 21 neurons): 67%
shift of current-voltage plots for activation (TTX-RINa; 1µM epinephrine, hyperpolarized direction): approximately 10 mV
effect on TTX-RINa (TTX-RINa; 1µM epinephrine, isoproterenol application): marked potentiation

COc1ccc2c(c1)c(CC(=O)O)c(C)n2C(=O)c1ccc(Cl)cc1 [indomethacin]
effect on the ability of epinephrine to induce hyperalgesia ([6]; continuous treatment with 4mg/kg of indomethacin, n=8): Neither indomethacin treatment nor sympathectomy had any effect

CC(C)NCC(O)c1ccc(O)c(O)c1 (centres unmarked) [isoproterenol]
hyperalgesia produced in the absence of epinephrine ([8]; intradermal injection of isoproterenol): dose-dependent hyperalgesia

Cc1ccc(N(CC2=NCCN2)c2cccc(O)c2)cc1 [phentolamine]
effect on ability of rolipram to prolong PGE2-induced hyperalgesia ([2]; similar dose of phentolamine, earlier studies): inhibited
effect on epinephrine-induced hyperalgesia [9]: did not significantly affect
effect on formalin-induced hyperalgesia [10]: significantly reversed
effect on basal paw threshold (basal paw threshold): no effect
effect on epinephrine-induced potentiation of TTX-RINa (TTX-RINa; 1µM epinephrine): did not

CC(C)NCC(O)COc1cccc2ccccc12 (centres unmarked) [propranolol]
effect on isoproterenol-induced hyperalgesia [8]: significantly attenuated
effect on epinephrine-induced hyperalgesia [9]: significantly attenuated
effect on epinephrine-induced potentiation of TTX-RINa (TTX-RINa; 1µM epinephrine): eliminated this potentiation

Rp-adenosine 3', 5'-cyclic monophosphate [Rp-cAMPs]
Percentage decrease in nociceptive threshold in response to PGE2 [2]: 3.1 ± 5.2 %
Percentage decrease in nociceptive threshold in response to epinephrine [9]: 13.9 ± 4.6 %
effect on epinephrine-induced potentiation of TTX-RINa (TTX-RINa; 1µM epinephrine): abolished

WIPTIDE
Percentage decrease in nociceptive threshold in response to PGE2 ([11]; PGE2 100 ng with BIM (1 µg) or WIPTIDE (0.1 µg)): 9.4 ± 3.1 %
effect on PGE2-induced hyperalgesia ([11]; same dose as for epinephrine: BIM 1 µg, WIPTIDE 100 ng): significantly attenuated
effect on isoproterenol-induced hyperalgesia [8]: almost completely abolished
Percentage decrease in nociceptive threshold in response to isoproterenol ([8]; isoproterenol 100 ng alone or with BIM (1 µg) or WIPTIDE (0.1 µg)): 1 ± 2.8 %
Percentage decrease in nociceptive threshold in response to epinephrine [9]: 10.9 ± 3.6 %

[D-Ala^2,N-Me-Phe^4,Gly^5-ol]-enkephalin [DAMGO]
Percentage decrease in nociceptive threshold in response to PGE2 [12]: 11.1 ± 4.0 %
Percentage decrease in nociceptive threshold in response to epinephrine [9]: 11.5 ± 3.1 %
